Measured values from patent publication US10844049B2, “GLP-1R agonists and uses thereof” (QILU REGOR THERAPEUTICS INC., priority 2018, dated 2020).

Molecular target: GLP1R (Homo sapiens, UniProt P43220)
Test: GLP1R cAMP HTRF assay, HEK293/GLP-1R/CRE/Luc (HEK293T cells)
Format: cell-based
Details: read-out: EC50
In short: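 cAMP accumulation via HTRF after 30 min, 37 °C exposure of 1000 receptor-expressing cells/well to compound (0.5% DMSO final) in IBMX (500 μM)/0.1% BSA DPBS.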

GLP1R, sequence (P43220 24-463): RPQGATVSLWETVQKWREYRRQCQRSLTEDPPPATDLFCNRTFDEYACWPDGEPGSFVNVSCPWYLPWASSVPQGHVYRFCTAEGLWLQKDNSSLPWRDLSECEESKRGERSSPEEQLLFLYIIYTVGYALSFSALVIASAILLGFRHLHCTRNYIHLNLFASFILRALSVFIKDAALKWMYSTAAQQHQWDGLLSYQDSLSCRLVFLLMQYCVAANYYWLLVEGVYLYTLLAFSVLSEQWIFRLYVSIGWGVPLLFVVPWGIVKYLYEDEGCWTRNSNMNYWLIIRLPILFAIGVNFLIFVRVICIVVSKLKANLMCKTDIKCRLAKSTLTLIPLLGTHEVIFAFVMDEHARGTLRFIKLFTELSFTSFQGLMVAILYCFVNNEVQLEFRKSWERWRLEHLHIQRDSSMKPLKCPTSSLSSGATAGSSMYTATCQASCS

`O=C(O)c1ccc2nc(CN3CCN(c4cccc(OCc5ccc(Cl)cc5F)n4)C(=O)C3)n(C[C@@H]3CCO3)c2c1` [Compound 55, (S)-2-((4-(6-((4-chloro-2-fluorobenzyl)oxy)pyridin-2-yl)-3-oxopiperazin-1-yl)methyl)-1-(oxetan-2-ylmethyl)-1H-benzo[d]imidazole-6-carboxylic acid] and `N#Cc1ccc(COc2cccc(N3CCN(Cc4nc5ccc(C(=O)O)nc5n4C[C@@H]4CCO4)CC3=O)n2)c(F)c1` [Compound 234, (S)-2-((4-(6-(4-cyano-2-fluorobenzyloxy)pyridin-2-yl)-3-oxopiperazin-1-yl)methyl)-3-(oxetan-2-ylmethyl)-3H-imidazo[4,5-b]pyridine-5-carboxylic acid] cannot be ordered by EC50: no more than 15 nM for the first, no more than 150 nM for the second.

`O=C(O)c1ccc2nc(CN3CC=C(c4ncc(F)c(OCc5ccc(C#CC6CC6)cc5F)n4)CC3)n(C[C@@H]3CCO3)c2c1` [Compound 209, (S)-2-((4-(4-((4-(cyclopropylethynyl)-2-fluorobenzyl)oxy)-5-fluoropyrimidin-2-yl)-3,6-dihydropyridin-1(2H)-yl)methyl)-1-(oxetan-2-ylmethyl)-1H-benzo[d]imidazole-6-carboxylic add] and `O=C(O)c1ccc2nc(CN3CC=C(c4nc(OCc5ccc(C#CC6CC6)cc5F)ncc4F)CC3)n(C[C@@H]3CCO3)c2c1` [Compound 211, (S)-2-((4-(2-(4-(cyclopropylethynyl)-2-fluorobenzyloxy)-5-fluoropyrimidin-4-yl)-5,6-dihydropyridin-1(2H)-yl)methyl)-1-(oxetan-2-ylmethyl)-1H-benzo[d]imidazole-6-carboxylic acid] cannot be ordered by EC50: no more than 15 nM for the first, no more than 15 nM for the second.

`O=C(O)c1ccc2nc(CC3CCN(c4cccc(OCc5ccc(Cl)cn5)n4)CC3)n(C[C@@H]3CCO3)c2n1` [Compound 230, (S)-2-((l-(6-((5-chloropyridin-2-yl)methoxy)pyridin-2-yl)piperidin-4-yl)methyl)-3-(oxetan-2-ylmethyl)-3H-imidazo[4,5-b]pyridine-5-carboxylic acid] and `COc1ccc(COc2cccc(C3=CCN(Cc4nc5ccc(C(=O)O)cc5n4C[C@@H]4CCO4)CC3)n2)nc1` [Compound 117, (S)-2-((6-((5-methoxypyridin-2-yl)methoxy)-3′,6′-dihydro-[2,4′-bipyridin]-1′(2′H)-yl)methyl)-1-(oxetan-2-ylmethyl)-1H-benzo[d]imidazole-6-carboxylic add] cannot be ordered by EC50: no more than 150 nM for the first, no more than 15 nM for the second.

`O=C(O)c1ccc2nc(CN3CCN(c4ccc(F)c(OCc5ccc(Cl)cc5F)c4)CC3)n(C[C@@H]3CCO3)c2c1` [Compound 184, (S)-2-((4-(3-((4-chloro-2-fluorobenzyl)oxy)-4-fluorophenyl)piperazin-1-yl)methyl)-1-(oxetan-2-ylmethyl)-1H-benzo[d]imidazole-6-carboxylic acid] and `O=C(O)c1ccc2nc(CN3CCN(c4cccc(OCc5ccc(Cl)cc5F)c4)CC3)n(C[C@@H]3CCO3)c2c1` [Compound 178, (S)-2-((4-(3-((4-chloro-2-fluorobenzyl)oxy)phenyl)piperazin-1-yl)methyl)-1-(oxetan-2-ylmethyl)-1H-benzo[d]imidazole-6-carboxylic add] cannot be ordered by EC50: no more than 15 nM for the first, no more than 15 nM for the second.

`CCn1cnc(Cn2c(CN3CC=C(c4cccc(OCc5ccc(C#N)cc5F)n4)CC3)nc3ccc(C(=O)O)cc32)c1` [Compound 183, 2-((6-((4-cyano-2-fluorobenzyl)oxy)-3′,6′-dihydro-[2H′-bipyridin]-1′(2′H)-yl)methyl)-1-((1-ethyl-1H-imidazol-4-yl)methyl)-1H-benzo[d]imidazole-6-carboxylic acid] and `N#Cc1ccc(COc2nccc(C3=CCN(Cc4nc5ccc(C(=O)O)cc5n4C[C@@H]4CCO4)CC3)n2)c(F)c1` [Compound 177, (S)-2-((4-(2-((4-cyano-2-fluorobenzyl)oxy)pyrimidin-4-yl)-5,6-dihydropyridin-1(2H)-yl)methyl)-1-(oxetan-2-ylmethyl)-1H-benzo[d]imidazole-6-carboxylic add] cannot be ordered by EC50: no more than 150 nM for the first, no more than 15 nM for the second.

`Cc1c(C(=O)O)ccc2nc(CN3CC=C(c4cccc(OCc5ccc(Cl)cc5)n4)CC3)n(C[C@@H]3CCO3)c12` [Compound 110, (S)-2-((6-((4-chlorobenzyl)oxy)-3′,6′-dihydro-[2,4′-bipyridin]-1′(2′H)-yl)methyl)-7-methyl-1-(oxetan-2-ylmethyl)-1H-benzo[d]imidazole-6-carboxylic add] and `O=C(O)c1ccc2nc(CN3CC=C(c4cccc(OCc5ccc(F)c(F)c5)n4)CC3)n(C[C@@H]3CCO3)c2c1` [Compound 145, (S)-2-((6((3,4-difluorobenzyl)oxy)-3′,6′-dihydro-[2,4′-bipyridin]-1′(2′H)-yl)methyl)-1-(oxetan-2-ylmethyl)-1H-benzo[d]imidazole-6-carboxylic acid] cannot be ordered by EC50: no more than 15 nM for the first, no more than 15 nM for the second.

`O=C(O)c1ccc2nc(CN3CC=C(c4cc5cn[nH]c5c(OCc5ccc(Cl)cc5F)n4)CC3)n(C[C@@H]3CCO3)c2c1` [Compound 103, (S)-2-((4-(7-((4-chloro-2-fluorobenzyl)oxy)-1H-pyrazolo[3H-c]pyridin-5-yl)-3,6-dihydropyridin-1(2H)-yl)methyl)-1-(oxetan-2-ylmethyl)-1H-benzo[d]imidazole-6-carboxylic add] and `O=C(O)c1ccc2nc(CN3CC=C(c4cccc(OCc5ncc(C(F)(F)F)cc5F)n4)CC3)n(C[C@@H]3CCO3)c2c1` [Compound 149, (S)-2-((6-((3-fluoro-5-(trifluoromethyl)pyridin-2-yl)methoxy)-3′,6′-dihydro-[2H′-bipyridin]-1′(2′II)-yl)methyl)-1-(oxetan-2-ylmethyl)-1H-benzo[d]imidazole-6-carboxylic acid] cannot be ordered by EC50: no more than 150 nM for the first, no more than 15 nM for the second.

`O=C(O)c1ccc2nc(CN3CCC(c4cccc(OCc5ccc(C#CC6CC6)cc5F)c4)CC3)n(C[C@@H]3CCO3)c2c1` [Compound 192, (S)-2-((4-(3-((4-(cyclopropylethynyl)-2-fluorobenzyl)oxy)phenyl)piperidin-1-yl)methyl)-1-(oxetan-2-ylmethyl)-1H-benzo[d]imidazole-6-carboxylic acid] and `CC1(C)CN(Cc2nc3ccc(C(=O)O)cc3n2C[C@@H]2CCO2)CC=C1c1cccc(OCc2ccc(C#N)cc2F)n1` [Compound 235, (S)-2-((6-((4-cyano-2-fluorobenzyl)oxy)-3′,3′-dimethyl-3′,6′-dihydro-[2H′-bipyridin]-1′(2′H)yl)methyl)-1-(oxetan-2-ylmethyl)-1H-benzo[d]imidazole-6-carboxylic add] cannot be ordered by EC50: no more than 150 nM for the first, no more than 1000 nM for the second.

`O=C(O)c1ccc2nc(CN3CC=C(c4cccc(NC5CCOc6cc(Cl)ccc65)n4)CC3)n(C[C@@H]3CCO3)c2c1` (stereo partly drawn) [Compound 61, 2-((4-(6-(7-chlorochroman-4-ylamino)pyridin-2-yl)-5,6-dihydropyridin-1(2H)-yl)methyl)-1-((S)-oxetan-2-ylmethyl)-1H-benzo[d]imidazole-6-carboxylic acid] and `O=C(O)c1ccc2nc(CN3CC=C(c4cccc(OCc5ccccc5)n4)CC3)n(C[C@@H]3CCO3)c2c1` [Compound 73, (S)-2-((6-(benzyloxy)-5′,6′-dihydro-[2,4′-bipyridin]-1′(2′H)-yl)methyl)-1-(oxetan-2-ylmethyl)-1H-benzo[d]imidazole-6-carboxylic add] cannot be ordered by EC50: no more than 1000 nM for the first, no more than 150 nM for the second.

Work on `O=C(O)c1ccc2nc(CN3CCN(c4ncnc(OCc5ccc(Cl)cc5F)n4)CC3)n(C[C@@H]3CCO3)c2c1` [Compound 167, (S)-2-((4-(4-((4-chloro-2-fluorobenzyl)oxy)-1,3,5-triazin-2-yl)piperazin-1-yl)methyl)-1-(oxetan-2-ylmethyl)-1H-benzo[d]imidazole-6-carboxylic acid] yielded an EC50 of no more than 150 nM.
